Results on 20 compounds are retold here after patent US20250228865A1, “COMPOUNDS FOR ENHANCING READ THROUGH OF GENES CONTAINING PREMATURE TERMINATION CODONS AND METHODS FOR MAKING AND USING THE SAME” (Sanofi US Services Inc., priority 2022, published 2025).

The test system of test [1] is recombinant human CFTR carrying the premature stop codon (PTC) mutation R1162X. The experiment in a line: CFTR-PTC mutant translation readthrough, Nanoluc tagged CFTR luminescence (R1162X cell line). The test is classed as cell-based. The settings on record: for CFTR R1162X ACTIVITY Fold 10 μM G-418: fold over 10 μM G-418, in combination with G418; for EC50: in combination with G418, 16HBE cells, read-out: CFTR R1162X ACTIVITY EC50. In outline:
(§1)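 Readthrough is the 48 h compound-induced luminescence increase scaled to that of maximal G418 (125-250 μM). Compounds run from 50 μM final in 2-fold steps, ±10 μM G418, on 16HBE lines carrying Nanoluc-tagged CFTR G542X (extracellular loop 4 tag) or R1162X (C-terminal tag), with 3 μM VX-809 present.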

For test [2], the system named is recombinant human CFTR carrying the premature stop codon (PTC) mutation G542X. Kind of test: CFTR-PTC mutant translation readthrough, Nanoluc tagged CFTR luminescence (G542X cell line). In kind it is cell-based. The settings on record: in combination with G418, G542X cell line; for CFTR G542X ACTIVITY Fold 10 μM G-418: fold over 10 μM G-418; for EC50: 16HBE cells. The gist of the method:
as §1

As usually defined, the EC50 is the concentration giving half of the maximal effect. Take `Clc1cccc(Cl)c1COc1cnc(N2CC3(CCCOC3)C2)nc1` [2-[5-[(2,6-dichlorophenyl)methoxy]pyrimidin-2-yl]-6-oxa-2-azaspiro[3.5]nonane]: in test [1], the “CFTR R1162X ACTIVITY Fold 10 μM G-418” value is listed as “A′ (A′ = ≥10X)” and the EC50 lay within 1 to 10 µM. In test [2], the “CFTR G542X ACTIVITY Fold 10 μM G-418” value is reported as “A′ (A′ = ≥10X)” and the EC50 is < 1 µM.
`O=C1OC(CO)CN1c1ccc(CCc2c(Cl)cccc2Cl)cc1` (centres unmarked) [3-[4-[2-(2,6-dichlorophenyl)ethyl]phenyl]-5-(hydroxymethyl)oxazolidin-2-one]: in test [1], the “CFTR R1162X ACTIVITY Fold 10 μM G-418” value is given as “B′ (B′ = ≥5X to <10X)” and the EC50 was > 10 µM. In addition, in test [2], the “CFTR G542X ACTIVITY Fold 10 μM G-418” value was “C′ (C′ = <5X)” and the EC50 fell in the range of 1 to 10 µM.
The matching figures for `O=C1OC(CO)CN1c1ccc(OCc2c(Br)cccc2Br)cc1` (centres unmarked) [3-[4-[(2,6-dibromophenyl)methoxy]phenyl]-5-(hydroxymethyl)oxazolidin-2-one]: “A′ (A′ = ≥10X)”, 1 to 10 µM, “A′ (A′ = ≥10X)” and 1 to 10 µM.
For `CC(O)C1CN(c2ccc(OCc3c(Cl)cccc3Cl)cc2)C(=O)O1` (centres unmarked) [3-[4-[(2,6-dichlorophenyl)methoxy]phenyl]-5-(1-hydroxyethyl)oxazolidin-2-one], in that order: “B′ (B′ = ≥5X to <10X)”, > 10 µM, “A′ (A′ = ≥10X)” and 1 to 10 µM.
The matching figures for `O=C1OC(CO)CN1c1ccc(OCc2c(Cl)cccc2Cl)cc1` (centres unmarked) [3-[4-[(2,6-dichlorophenyl)methoxy]phenyl]-5-(hydroxymethyl)oxazolidin-2-one]: “B′ (B′ = ≥5X to <10X)”, 1 to 10 µM, “B′ (B′ = ≥5X to <10X)” and 1 to 10 µM.
As to `O=C1OCCN1c1ccc(OCc2c(Cl)cccc2Cl)cc1` [3-[4-[(2,6-dichlorophenyl)methoxy]phenyl]oxazolidin-2-one], in test [1], the “CFTR R1162X ACTIVITY Fold 10 μM G-418” value is “B′ (B′ = ≥5X to <10X)” and the EC50 lay in the range of 1 to 10 µM. Moreover, in test [2], the “CFTR G542X ACTIVITY Fold 10 μM G-418” value is “A′ (A′ = ≥10X)” and the EC50 lay within 1 to 10 µM.
As to `O=C1COC(=O)N1c1ccc(OCc2c(Cl)cccc2Cl)cc1` [3-[4-[(2,6-dichlorophenyl)methoxy]phenyl]oxazolidine-2,4-dione], in test [1], the “CFTR R1162X ACTIVITY Fold 10 μM G-418” value is given as “C′ (C′ = <5X)” and the EC50 lay within 1 to 10 µM. Also, in test [2], the “CFTR G542X ACTIVITY Fold 10 μM G-418” value was “B′ (B′ = ≥5X to <10X)” and the EC50 lay in the range of 1 to 10 µM.
In the case of `Cc1cccc(C)c1COc1ccc(N2CC(CO)OC2=O)c2ccccc12` (centres unmarked) [3-[4-[(2,6-dimethylphenyl)methoxy]-1-naphthyl]-5-(hydroxymethyl)oxazolidin-2-one], in test [1], the “CFTR R1162X ACTIVITY Fold 10 μM G-418” value is on record as “C′ (C′ = <5X)” and the EC50 is > 10 µM. The EC50 in test [2] was > 10 µM.
As to `Cc1cccc(C)c1COc1ccc(N2CC(CO)OC2=O)cc1` (centres unmarked) [3-[4-[(2,6-dimethylphenyl)methoxy]phenyl]-5-(hydroxymethyl)oxazolidin-2-one], in test [1], the “CFTR R1162X ACTIVITY Fold 10 μM G-418” value is “A′ (A′ = ≥10X)” and the EC50 is > 10 µM. In test [2], the “CFTR G542X ACTIVITY Fold 10 μM G-418” value is “B′ (B′ = ≥5X to <10X)” and the EC50 was 1 to 10 µM.
Regarding `O=C1OC(CO)CN1c1ccc(OCc2cc(Cl)cc(Cl)c2)cc1` (centres unmarked) [3-[4-[(3,5-dichlorophenyl)methoxy]phenyl]-5-(hydroxymethyl)oxazolidin-2-one], in test [1], the “CFTR R1162X ACTIVITY Fold 10 μM G-418” value is recorded as “B′ (B′ = ≥5X to <10X)” and the EC50 is > 10 µM. Moreover, in test [2], the “CFTR G542X ACTIVITY Fold 10 μM G-418” value is “B′ (B′ = ≥5X to <10X)” and the EC50 lay within 1 to 10 µM.
`O=C1OC(CO)CN1c1ccc(CCc2c(Cl)cccc2Cl)cn1` (centres unmarked) [3-[5-[2-(2,6-dichlorophenyl)ethyl]-2-pyridyl]-5-(hydroxymethyl)oxazolidin-2-one]: in test [1], the “CFTR R1162X ACTIVITY Fold 10 μM G-418” value is on record as “A′ (A′ = ≥10X)” and the EC50 is > 10 µM. For the same compound, in test [2], the “CFTR G542X ACTIVITY Fold 10 μM G-418” value is recorded as “B′ (B′ = ≥5X to <10X)” and the EC50 is 1 to 10 µM.
For the compound `O=C1OC(CO)CN1c1ccc(OCc2c(Cl)cccc2Cl)cn1` (centres unmarked) [3-[5-[(2,6-dichlorophenyl)methoxy]-2-pyridyl]-5-(hydroxymethyl)oxazolidin-2-one], in test [1], the “CFTR R1162X ACTIVITY Fold 10 μM G-418” value was “A′ (A′ = ≥10X)” and the EC50 fell in the range of 1 to 10 µM. Moreover, in test [2], the “CFTR G542X ACTIVITY Fold 10 μM G-418” value is reported as “A′ (A′ = ≥10X)” and the EC50 is 1 to 10 µM.
Regarding `O=C1OC(CO)CN1c1ccc(OCc2cc(Cl)cc(Cl)c2)cn1` (centres unmarked) [3-[5-[(3,5-dichlorophenyl)methoxy]-2-pyridyl]-5-(hydroxymethyl)oxazolidin-2-one], in test [1], the “CFTR R1162X ACTIVITY Fold 10 μM G-418” value was “A′ (A′ = ≥10X)” and the EC50 lay within 1 to 10 µM. In test [2], the “CFTR G542X ACTIVITY Fold 10 μM G-418” value is on record as “A′ (A′ = ≥10X)” and the EC50 lay within 1 to 10 µM.
As to `CN(CCCO)c1ncc(OCc2c(Cl)cccc2Cl)cn1` [3-[[5-[(2,6-dichlorophenyl)methoxy]pyrimidin-2-yl]-methyl-amino]propan-1-ol], in test [1], the “CFTR R1162X ACTIVITY Fold 10 μM G-418” value is reported as “B′ (B′ = ≥5X to <10X)” and the EC50 was > 10 µM. Moreover, in test [2], the “CFTR G542X ACTIVITY Fold 10 μM G-418” value was “B′ (B′ = ≥5X to <10X)” and the EC50 was 1 to 10 µM.
For the compound `O=C(O)C1CN(c2ncc(OCc3c(Cl)cccc3C(F)(F)F)cn2)CCO1` (centres unmarked) [4-(5-{[2-chloro-6-(trifluoromethyl)phenyl]methoxy}pyrimidin-], the EC50 is > 10 µM in test [1] and 1 to 10 µM in test [2].
`Cn1cnc(-c2ccc(OCc3c(Cl)cccc3Cl)cc2)c1` [4-[4-[(2,6-dichlorophenyl)methoxy]phenyl]-1-methyl-imidazole]: in test [1], the “CFTR R1162X ACTIVITY Fold 10 μM G-418” value is “A′ (A′ = ≥10X)” and the EC50 lay in the range of 1 to 10 µM. Besides, in test [2], the “CFTR G542X ACTIVITY Fold 10 μM G-418” value was “A′ (A′ = ≥10X)” and the EC50 fell in the range of 1 to 10 µM.
Consider `O=C1OCC(CO)=C1c1ccc(OCc2c(Cl)cccc2Cl)cc1` [4-[4-[(2,6-dichlorophenyl)methoxy]phenyl]-3-(hydroxymethyl)-2H-furan-5-one], for which, in test [1], the “CFTR R1162X ACTIVITY Fold 10 μM G-418” value is “B′ (B′ = ≥5X to <10X)” and the EC50 fell in the range of 1 to 10 µM. Also, in test [2], the “CFTR G542X ACTIVITY Fold 10 μM G-418” value is on record as “B′ (B′ = ≥5X to <10X)” and the EC50 fell in the range of 1 to 10 µM.
Turning to `NC(=O)N1CCCN(c2ncc(OCc3c(Cl)cccc3Cl)cn2)CC1` [4-[5-[(2,6-dichlorophenyl)methoxy]pyrimidin-2-yl]-1,4-diazepane-1-carboxamide], in test [1], the “CFTR R1162X ACTIVITY Fold 10 μM G-418” value is given as “A′ (A′ = ≥10X)” and the EC50 lay in the range of 1 to 10 µM. Also, in test [2], the “CFTR G542X ACTIVITY Fold 10 μM G-418” value is “A′ (A′ = ≥10X)” and the EC50 lay within 1 to 10 µM.
On to `CN1CCN(c2ncc(OCc3c(Cl)cccc3Cl)cn2)CC1=O` [4-[5-[(2,6-dichlorophenyl)methoxy]pyrimidin-2-yl]-1-methyl-piperazin-2-one], for which, in test [1], the “CFTR R1162X ACTIVITY Fold 10 μM G-418” value is listed as “A′ (A′ = ≥10X)” and the EC50 fell in the range of 1 to 10 µM. Also, in test [2], the “CFTR G542X ACTIVITY Fold 10 μM G-418” value was “A′ (A′ = ≥10X)” and the EC50 is 1 to 10 µM.
With `Clc1cccc(Cl)c1COc1cnc(N2CCOCC2)nc1` [4-[5-[(2,6-dichlorophenyl)methoxy]pyrimidin-2-yl]morpholine], in test [1], the “CFTR R1162X ACTIVITY Fold 10 μM G-418” value was “A′ (A′ = ≥10X)” and the EC50 was 1 to 10 µM. Also, in test [2], the “CFTR G542X ACTIVITY Fold 10 μM G-418” value is given as “A′ (A′ = ≥10X)” and the EC50 is 1 to 10 µM.
